# Measurements reported in patent publication US20180237358A1, “RADIOISOTOPE 18F SUBSTITUTED THIAMINE, AND SYNTHESIS METHOD AND USE THEREOF” (ZHONGSHAN HOSPITAL FUDAN UNIVERSITY, priority 2015, published 2018).
# Values joined by “and” are separate entries in the source; they are usually repeats but may differ in a detail not shown here. Identical values can stand only once.
# How the values were obtained:
# [1] = small animal PET/CT scan of two strains of mice (summary statement); format: in vivo, mice (ICR and C57BL/6); settings: ICR and C57BL/6 mice
# Text: is successfully substituted with ^18F atom, and a fluorine-substituted thiamine (Formula I) and a hydrobromide thereof (Formula II) are synthesized. Subsequently, the present inventors scan two strains of mice (ICR and C57BL/6) using the small animal PET/CT.
# [2] = PET/CT scan of C57BL/6 mice with ^18F substituted thiamine as tracer, whole brain ROI (SUV, TAC); format: in vivo
# Text: 1. Experiments on Scanning of C57BL/6 Mice by Using ^18F Substituted Thiamine as a PET/CT Tracer.
# (§1) 1.1. Experimental Drug: ^18F Substituted Thiamine (Synthesized and Identified as in Example 1).
# (§2) 1.2. Animals and treatments: 8-week-old C57BL/6 mice, SPF grade, purchased from Shanghai SLAC Laboratory Animal Co., Ltd, were housed in a barrier environment and assigned to a treatment group and a control group, randomly. The animals in the treatment group were fed with thiamine deficient diet (n=2), and the animals in the control group were fed with normal diet (n=3). After 28 days, PET/CT scan of the mice was performed.
# 1.3. PET/CT scan of the mice: Small animal PET/CT scanner (Inveon, Siemens), thickness of PET layer: 0.78 mm, 128*128 matrix, energy window: 350-650 kev, CT tube current: 500 uA, tube voltage: 80 kv; scan mode: dynamic scan; scan time: 90 min.
# (§3) 1.4. Processing of PET/CT image: After the acquisition, the images were reconstructed with two iterations of 3D OSEM. The whole brain was delimited as the region of interest (ROI) by the image processing software coming with the Inveon small animal PET/CT scanner. The SUV and TAC within 90 min were calculated.
# [3] = PET/CT scan of ICR mice with ^18F substituted thiamine as tracer, whole brain ROI (SUV, TAC); format: in vivo
# Text: 1. Experiments on Scanning of ICR Mice by Using ^18F Substituted Thiamine as a PET/CT Tracer.
# as §1
# as §2, with “ICR” for “C57BL/6”, “group” for “group,”, “(n=3),” for “(n=2),”
# 1.3. PET/CT scan of the mice: small animal PET/CT scanner (Inveon, Siemens) thickness of PET layer: 0.78 mm, 128*128 matrix, energy window: 350-650 kev, CT tube current: 500 uA, tube voltage: 80 kv; scan mode: dynamic scan; scan time: 90 min.
# as §3, with “Standard uptake value (SUV)” for “SUV”
# [4] = as above; format: in vivo; settings: control group ICR mice (normal diet), two mice
Structure (SMILES),uptake in the brain of thiamine-deficient model mice versus control mice [1],blood-brain barrier penetration ([1]; small animal PET/CT),"uptake in the brains of thiamine-deficient mice versus control (images) ([2]; C57BL/6 mice, FIGS. 12 and 13)","SUV value at absorption peak in the brain ([2]; control group C57BL/6 mice (normal diet), individual mice)","SUV value at peak of accumulation in the brain ([2]; thiamine-deficient group C57BL/6 mice, individual mice, at 90 min)","time of peak of accumulation in the brain ([2]; thiamine-deficient group C57BL/6 mice, two mice, rose continuously over 90 min) [min]","uptake in the brains of thiamine-deficient group versus control (images) ([3]; ICR mice, FIGS. 8 and 9)","SUV value at peak of absorption in the brain ([3]; thiamine-deficient group ICR mice, individual mice)","time of peak of absorption in the brain ([3]; thiamine-deficient group ICR mice, individual mice, 90 min dynamic scan)",SUV value at absorption peak in the brain [4],time of absorption peak in the brain [4]
Br.Cc1ncc(C[n+]2csc(CC[18F])c2C)c(N)n1.[Br-] [^18F substituted thiamine hydrobromide],significantly higher,successfully penetrates the blood-brain barrier,–,–,–,–,–,–,–,–,–
"Cc1ncc(C[n+]2csc(CC[18F])c2C)c(N)n1 [^18F substituted thiamine, 3-[(4-Amino-2-methylpyrimidin-5-yl)methyl]-5-(2-fluoroethyl)-4-methylthiazolium]",–,–,obviously increased,0.17 and 0.25 and 0.3,0.48 and 0.55,90,obviously increased,0.98 and 0.97 and 0.61,22.5 min and 35 min and 65 min,0.18 and 0.36,about 20 min
